Laboratory results taken from patent US7919488B2, “Therapeutic compounds” (Pfizer Inc., priority 2006, dated 2011).
Where a name gives a salt, the structure may show the parent alone.

What was measured:
Format in all cases: biochemical
[1] = molecular target: T1, recombinant CYP3A4-b5 enzyme (Baculosomes®) (Homo sapiens, UniProt P08684); experiment: Kiapp against recombinant CYP3A4 enzyme (Baculosomes), BFC substrate; settings: recombinant CYP3A4-b5 (Invitrogen), 5 uM BFC, 200 uM NADPH, pre-incubation at least 30 minutes, pH 7.0, room temperature
T1 construct: purchased Invitrogen (Carlsbad, Calif.)
T1 sequence (P08684 whole entry): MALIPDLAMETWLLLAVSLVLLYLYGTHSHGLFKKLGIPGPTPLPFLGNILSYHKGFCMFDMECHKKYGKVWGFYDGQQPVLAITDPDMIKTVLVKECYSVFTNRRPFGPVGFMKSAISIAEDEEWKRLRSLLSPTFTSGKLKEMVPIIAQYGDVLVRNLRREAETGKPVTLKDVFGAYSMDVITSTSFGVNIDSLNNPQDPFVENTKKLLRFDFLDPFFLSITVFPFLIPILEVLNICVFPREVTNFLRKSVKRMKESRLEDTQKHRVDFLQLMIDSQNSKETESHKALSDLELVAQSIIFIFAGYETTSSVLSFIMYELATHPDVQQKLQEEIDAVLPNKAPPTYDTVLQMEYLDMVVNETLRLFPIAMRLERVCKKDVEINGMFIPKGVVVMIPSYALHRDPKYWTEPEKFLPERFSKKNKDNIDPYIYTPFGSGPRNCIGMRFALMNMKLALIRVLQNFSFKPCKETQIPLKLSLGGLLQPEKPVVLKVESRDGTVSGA
How it was run: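 Recombinant CYP3A4-b5 Baculosomes were run in 100 mM sodium phosphate pH 7.0 with 5 mM TCEP and 2% DMF at room temperature, with ~30 min pre-incubation. The reaction was started with NADPH (200 uM) and BFC (5 uM), both final. Kiapp came from initial fluorescence velocities over the first 5 min across inhibitor concentrations.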

CYP3A4 [2] = molecular target: T2, CYP3A4 (Homo sapiens, UniProt P08684); experiment: IC50 against CYP3A4 by inhibition of midazolam metabolism in human liver microsomes; settings: 0.1 mg/mL human liver microsomes, 2 μM midazolam, 1 mM NADPH, 1-hydroxymidazolam production, eight minutes; read-out: IC50, μM (HLM, midazolam)
T2 construct: 0.1 mg/mL human liver microsomes; from tissue; host or cells: human liver microsomes
T2 sequence (P08684 whole entry): as above
How it was run: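 Human liver microsomes (0.1 mg/mL) incubated 8 min with 2 μM midazolam and 1 mM NADPH in 100 mM potassium phosphate, pH 7.4. 1-Hydroxymidazolam quantified by LC-MS/MS (MRM) as peak area ratio to internal standard against a metabolite standard curve.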

CYP3A4 [3] = molecular target: T2, CYP3A4; experiment: IC50 against CYP3A4 by inhibition of testosterone metabolism in human liver microsomes; settings: 0.1 mg/mL human liver microsomes, 25 μM testosterone, 1 mM NADPH, 6-β-OH-testosterone production, eight minutes; read-out: IC50, μM (HLM, testosterone)
How it was run: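 Testosterone used as substrate, incubated for eight minutes. 6-β-OH-testosterone formation quantified by LC-MS/MS (MRM) as peak area ratio to internal standard against a metabolite standard curve. IC50 derived from inhibition of this metabolism.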

[4] = molecular target: T3, recombinant CYP3A4+b5 enzyme (Supersomes®) (Homo sapiens, UniProt P08684); experiment: Kiapp against recombinant CYP3A4 enzyme (Supersomes), BFC substrate; settings: recombinant CYP3A4+b5 (BD Biosciences), 5 uM BFC, 200 uM NADPH, pre-incubation at least 30 minutes, pH 7.0, room temperature
T3 construct: purchased BD Biosciences (Woburn, Mass.)
T3 sequence (P08684 2-503 limits assumed): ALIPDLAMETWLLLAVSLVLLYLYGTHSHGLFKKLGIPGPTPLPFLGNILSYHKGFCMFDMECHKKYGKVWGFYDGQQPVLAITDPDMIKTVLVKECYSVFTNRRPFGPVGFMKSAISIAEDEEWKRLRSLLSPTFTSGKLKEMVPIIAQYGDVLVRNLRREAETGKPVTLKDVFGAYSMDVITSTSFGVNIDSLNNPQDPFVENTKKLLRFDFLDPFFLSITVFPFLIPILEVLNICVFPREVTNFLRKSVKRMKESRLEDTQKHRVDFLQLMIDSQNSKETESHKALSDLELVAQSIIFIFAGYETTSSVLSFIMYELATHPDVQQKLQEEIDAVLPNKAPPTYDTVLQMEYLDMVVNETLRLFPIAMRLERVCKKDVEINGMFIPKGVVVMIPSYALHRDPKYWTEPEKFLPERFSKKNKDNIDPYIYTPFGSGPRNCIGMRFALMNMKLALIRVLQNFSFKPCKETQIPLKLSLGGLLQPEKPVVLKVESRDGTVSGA
Description: 1. Determination of Compound Kiapp
A determination of the Kiapp of the compounds of the invention against recombinant CYP3A4 enzyme was performed as follows. The assay was performed in a 100 mM sodium phosphate buffer pH 7.0, 5 mM TCEP and containing 2% dimethylformamide (final concentration) upon addition of substrate and inhibitor. A typical reaction for the determination of Kiapp values was carried at room temperature in a solid black Costar u-bottom 96-well polypropylene plate. In each well, recombinant CYP3A4 enzyme (5.5 nM or 8 nM, final concentration depending on the commercial source of the enzyme) was pre-incubated in the presence of the inhibitor for at least 30 minutes in the assay buffer. When pre-incubation was completed (˜30 min), the reaction was initiated by adding NADPH (200 uM, final concentration), and 7-benzyloxy-4-(trifluoromethyl)-coumarin (BFC) (5 uM, final concentration). The oxidation of the coumarin substrate was recorded by a 96-well plate reader POLARstar (BMG LABTECH, Offenburg, Germany).
The initial reaction velocities were measured during the first 5 min of the reaction when the release of the fluorescent product is linear with time, in the absence and in the presence of various concentrations of inhibitors. For non-partial & partial inhibitors, the Kiapp values were determined by using the equation for tight-binding inhibitor developed by Morrison, J F (Morrison J F. Biochim Biophys Acta. 1969, 185: 269-86) and by Szedlaseck S E et al. (Szedlascek, S. E., Ostafe, V., Serban, M., and Vlad, M. O. Biochem. J. 1988, 254:311-312), respectively.
The fluorescent substrate BFC was purchased from Sigma (St Louis, Mo.). Two commercial sources of recombinant enzymes were used in this study: recombinant CYP3A4-b5 enzyme (Baculosomes®) was purchased from Invitrogen (Carlsbad, Calif.) and the recombinant CYP3A4+b5 enzyme (Supersomes®) was purchased from BD Biosciences (Woburn, Mass.).

SMILES	Ki [1]	IC50 (CYP3A4 [2])	IC50 (CYP3A4 [3])	Ki [4]
O=C(Cn1nc(-c2ccncc2)cc1Cc1ccc(F)cc1)N[C@H]1CC[C@@H](O)CC1 [Example 95, 2-[5-(4-fluorobenzyl)-3-pyridin-4-yl-1H-pyrazol-1-yl]-N-(cis-4-hydroxycyclohexyl)-acetamide]	0.0871 µM	< 0.012 µM	< 0.021 µM	0.0059 µM
CS(=O)(=O)C1CCN(C(=O)Cn2nc(-c3ccncc3)cc2Cc2ccc(F)cc2)C1 (stereo not drawn) [Example 132, 4-[5-(4-fluorobenzyl)-1-{2-[3-(methylsulfonyl)-pyrrolidin-1-yl]-2-oxoethyl}-1H-pyrazol-3-yl]pyridine]	0.0996 µM	0.023 µM	0.04 µM	0.0716 µM
CC(=O)NC(C)(C)CNC(=O)Cn1nc(-c2ccncc2)cc1Cc1ccc(F)cc1 [Example 71, N-[2-(acetylamino)-2-methylpropyl]-2-[5-(4-fluorobenzyl)-3-pyridin-4-yl-1H-pyrazol-1-yl]acetamide]	0.0599 µM	0.034 µM	0.035 µM	0.0237 µM
CC(C)NC(=O)NC1CCN(C(=O)Cn2nc(-c3ccncc3)cc2Cc2ccc(F)cc2)CC1 [Example 17, N-(1-{[5-(4-fluorobenzyl)-3-pyridin-4-yl-1H-pyrazol-1-yl]acetyl}piperidin-4-yl)-N′-isopropylurea]	0.0667 µM	0.0115 µM	0.035 µM	0.0231 µM
O=C(Cn1nc(-c2ccncc2)cc1Cc1ccc(F)cc1)N1CCCC(N2CCOCC2)CC1 (stereo not drawn) [Example 4, 1-{[5-(4-fluorobenzyl)-3-pyridin-4-yl-1H-pyrazol-1-yl]acetyl}-4-morpholin-4-ylazepane, maleic acid salt]	0.0211 µM	0.023 µM	0.057 µM	0.0061 µM
CS(=O)(=O)CCN1CCN(C(=O)Cn2nc(-c3ccncc3)cc2Cc2ccc(F)cc2)CC1 [Example 131, 1-{[5-(4-fluorobenzyl)-3-pyridin-4-yl-1H-pyrazol-1-yl]acetyl}-4-[2-(methylsulfonyl)ethyl] piperazine]	0.0111 µM	0.0139 µM	0.037 µM	0.00283 µM
CC(C)NC(=O)Cn1nc(-c2c[nH]cn2)cc1Cc1ccc(F)cc1 [Example 111, 2-[5-(4-fluorobenzyl)-3-(1H-imidazol-4-yl)-1H-pyrazol-1-yl]-N-isopropylacetamide]	0.838 µM	0.223 µM	0.714 µM	
CC(C)OC(=O)N(C)C1CCN(C(=O)Cn2nc(-c3ccncc3)cc2Cc2ccc(F)cc2)CC1 [Example 112, isopropyl (1-{[5-(4-fluorobenzyl)-3-pyridin-4-yl-1H-pyrazol-1-yl]acetyl}piperidin-4-yl)methylcarbamate]	0.002 µM	0.006 µM	0.009 µM	
O=C(c1ncc[nH]1)N1CC(n2nc(-c3ccncc3)cc2Cc2ccc(F)cc2)C1 [Example 24, 4-{5-(4-fluorobenzyl)-1-[1-(1H-imidazol-2-ylcarbonyl)azetidin-3-yl]-1H-pyrazol-3-yl}pyridine]	0.0772 µM	0.027 µM	0.047 µM	
CN(C(=O)Cn1nc(-c2ccncc2)cc1Cc1ccc(F)cc1)[C@H]1CC[C@H](O)CC1 [Example 83, 2-[5-(4-fluorobenzyl)-3-pyridin-4-yl-1H-pyrazol-1-yl]-N-(trans-4-hydroxycyclohexyl)-N-methylacetamide]	0.0458 µM	0.015 µM	0.0235 µM	
OCCn1nc(Cc2ccc(F)cc2)cc1-c1ccncc1 [Example 30, 2-[3-(4-fluorobenzyl)-5-pyridin-4-yl-1H-pyrazol-1-yl]ethanol]	0.646 µM	0.773 µM	0.446 µM	
O=C(Cn1nc(-c2ccncc2)cc1Cc1ccc(F)cc1)NC1CCC1 [Example 53, N-cyclobutyl-2-[5-(4-fluorobenzyl)-3-pyridin-4-yl-1H-pyrazol-1-yl]acetamide]	0.034 µM	0.028 µM	0.095 µM	
